# In article PMC7870753, “Population pharmacokinetics of ATR inhibitor berzosertib in phase I studies for different cancer types” (Cancer Chemotherapy and Pharmacology, 2020):
# Like-named read-outs stand apart in the source and are kept apart here.
# Key:
# [1] = tested on: CYP3A4; conditions: based on in vitro data; cited from earlier work
# [2] = tested on: pancreatic cancer xenografts; set-up: method as in PMID 23222511, PMID 22825331; conditions: after radiation and gemcitabine-based chemoradiation; cited from earlier work
# [3] = tested on: acute myeloid leukemia; set-up: method as in PMID 29789314; conditions: orthotopic mouse model, in combination with gemcitabine; cited from earlier work
# [4] = Population PK analysis (non-linear mixed-effect, two-compartment linear model) of berzosertib plasma concentrations, Studies 001 and 002; type: in vivo; conditions: for cov (Q, V2) / cov (V1, Q) / cov (V1, V2): covariance; for clearance: human, plasma, read-out: Clearance CL (converted)
# Protocol: Longitudinal berzosertib plasma concentration and dosing data from the two phase I clinical trials, described above, were available for the analysis. The studies were performed in accordance with the Declaration of Helsinki; all participants provided written informed consent before blood samples were collected.
# Study 001 (Online Resource Figure S1) was a phase I, open-label, first-in-human multiple ascending dose study to investigate the safety, tolerability, and PK of berzosertib alone and in combination with cytotoxic chemotherapy in patients with advanced solid tumors. The RP2D or maximum tolerated dose was determined in dose escalation parts A and B with further evaluation of safety and efficacy in expansion cohorts (parts C1–3). PK data were available from 170 patients who received twice-weekly 1-h intravenous infusions of berzosertib (18–210 mg/m^2) during a 7–14-day monotherapy lead-in. This preceded combination with chemotherapies, administered on day 1, and berzosertib administered on days 2 and 9 every 21 days following (1) gemcitabine, or cisplatin and gemcitabine (54 patients, Part A); (2) cisplatin (29 patients, Part B); (3) gemcitabine in patients with non-small cell lung cancer (NSCLC; 36 patients, Part C1); (4) cisplatin in patients with triple-negative breast cancer (TNBC) basaloid subtype and BRCA wild type (37 patients, Part C2); cisplatin or carboplatin in patients with platinum-resistant small cell lung cancer (SCLC; 14 patients, Part C3). Berzosertib was also evaluated in combination with irinotecan in a subsequent study cohort (Part B2). In Study 001, Parts A and B, rich PK sampling (pre-dose, 0.5, 1 h (end of infusion), 1.5, 2, 4, 8, 24, 48, and 72 h after the start of infusion) was performed for most patients following berzosertib monotherapy in the lead-in. Similar rich PK sampling was conducted on cycle 1 days 2 through 5 after the first dose of berzosertib in combination with other agents in study parts A and B or during dose escalation. Additional sparse samples (pre-dose and 2 h after the end of infusion) were taken during cycle 1, day 9 and cycle 2, day 2. In the expansion cohorts Parts C1, C2, and C3, limited PK sampling was performed on cycle 1 day 2: pre-dose, 0.5, 1 h (end of infusion), 1.5, 2, 4, and (optionally) 8 h after the start of infusion. Similar sampling was performed on cycle 1, day 9 on a portion of the participants before being removed by amendment.
# Study 002 (Online Resource Figure S1) was a phase I, open-label, multiple ascending dose study to investigate the safety, tolerability, and PK/PD profile of berzosertib as a single agent and in combination with carboplatin or carboplatin and paclitaxel in patients with advanced solid tumors. PK data were available from 70 patients who received 1-h intravenous infusions of berzosertib (1) as a single agent once weekly (11 patients, Part A1); (2) as a single agent twice weekly (6 patients, Part A2); (3) on days 2 and 9 every 21 days following carboplatin on day 1 (23 patients, Part B1); (4) on days 2 and 9 every 21 days following carboplatin and paclitaxel on day 1 (15 patients, Part B2); (5) on days 2 and 9 following carboplatin on day 1 every 21 days in patients with advanced solid tumors and lymphoma with defects in the DDR (15 patients, Part C). In Study 002, in all study parts, rich PK sampling (pre-dose, 0.5, 1 h (end of infusion), 1.5, 2, 4, 8, 24, and 48 h after start of infusion) was performed after the first dose of berzosertib. In Part A1, additional sparse samples (pre-dose, 0.5–2 h after the end of infusion) were collected on cycle 1, day 8 and day 15. […]
# [5] = tested on: patient-derived non-small cell lung tumor xenografts; set-up: method as in PMID 25010037; conditions: multiple patient-derived non-small cell lung tumor xenografts; cited from earlier work
# [6] = cited from earlier work
# [7] = tested on: pancreatic cancer cells; set-up: method as in PMID 23222511, PMID 22825331; conditions: pancreatic cancer cells vs normal cells; cited from earlier work
# [8] = cited from earlier work; remark: listed apart in the source
# [9] = tested on: acute myeloid leukemia cells; set-up: method as in PMID 29789314; conditions: in combination with gemcitabine; cited from earlier work
# [10] = tested on: p-Chk1; set-up: method as in earlier work; conditions: cited from earlier work
# [11] = full covariate model, typical patient, intravenous infusion
smiles,measurement,setting,value
"CNCc1ccc(-c2cc(-c3nc(-c4ccc(S(=O)(=O)C(C)C)cc4)cnc3N)on2)cc1 [berzosertib, 5-(4-(Isopropylsulfonyl)phenyl)-3-(3-(4-((methylamino)methyl)phenyl)isoxazol-5-yl)pyrazin-2-amine]","elimination via metabolism, enzyme",[1],mainly mediated by CYP3A4
same,growth delay of xenografts,[2],markedly prolonged growth delay
same,normal cell or tissue toxicity,[2],without augmenting normal cell or tissue toxicity
same,survival,[3],increased survival
same,Additive residual error,[4]; base model,1.9 ng/mL
same,Central volume V1,[4]; base model,111 L
same,Peripheral volume V2,[4]; base model,861 L
same,Proportional residual error [sd],[4]; base model,0.22
same,"cov (Q, V2)",[4]; base model,0.089
same,"cov (V1, Q)",[4]; base model,0.26
same,"cov (V1, V2)",[4]; base model,0.093
same,IIV on V1 [var],"[4]; base model, variance",0.38
same,IIV on Q [var],"[4]; base model, variance, first line so headed (r14)",0.24
same,IIV on Q [var],"[4]; base model, variance, second line so headed (r16)",0.071
same,PK interaction with evaluated chemo-combinations,"[4]; berzosertib with gemcitabine, cisplatin, carboplatin, paclitaxel combinations",no evidence of a clinically significant PK interaction
same,V1 lower in female patients than in male patients,[4]; female vs male patients,15.8%
same,Additive residual error,[4]; full covariate model,1.73 ng/mL
same,Proportional residual error [sd],[4]; full covariate model,0.22
same,"cov (Q, V2)",[4]; full covariate model,0.090
same,"cov (V1, Q)",[4]; full covariate model,0.25
same,"cov (V1, V2)",[4]; full covariate model,0.081
same,Central volume V1,[4]; [11],118 L
same,Peripheral volume V2,[4]; [11],1030 L
same,IIV on Q [var],"[4]; full covariate model, variance",0.24
same,IIV on V1 [var],"[4]; full covariate model, variance",0.32
same,IIV on V2 [var],"[4]; full covariate model, variance",0.047
same,increase for V1,[4]; high extreme of albumin,18%
same,median increase in CL,[4]; high extreme of body weight,12%
same,median increase in V1,[4]; high extremes of tumor size at baseline,24%
same,clearance,"[4]; intravenous, base model",933 mL/min
same,clearance,"[4]; full covariate model, typical patient, intravenous infusion, 240 patients, 18–480 mg/m^2",1080 mL/min
same,median decrease for V2,[4]; low extreme of age,16.7%
same,median decrease for V1,[4]; low extreme of albumin,28.6%
same,decrease in CL,[4]; low extreme of body weight,9%
same,higher CL in patients with TNBC,[4]; patients with TNBC vs female patients with other tumor types,42%
same,efficacy in combination with cisplatin,[5],dramatically enhanced the efficacy of cisplatin
same,recommended phase II dose (RP2D),[6]; days 2 and 9 following 75 mg/m^2 cisplatin (day 1),140 mg/m^2
same,recommended phase II dose (RP2D),[6]; days 2 and 9 following 1000 mg/m^2 gemcitabine (days 1 and 8),210 mg/m^2
same,recommended phase II dose (RP2D),[6]; days 2 and 9 following carboplatin AUC 5 (day 1),90 mg/m^2
same,sensitization to radiation and/or gemcitabine,[7],selectively sensitized pancreatic cancer cells but not normal cells
same,PK linearity over the dose range,[8]; 18–480 mg/m^2,linear
same,renal excretion,[8]; Study 001,5–6%
same,terminal half-life,"[8]; patients, intravenous, 18–480 mg/m^2",approximately 17 h
same,sensitization of cells,[9],acutely sensitized acute myeloid leukemia cells
same,total plasma concentration needed to reach 50% of maximal inhibition (IC50) of p-Chk1 in humans,"[10]; estimated from multiple preclinical tumor models with carboplatin, irinotecan, cisplatin or gemcitabine, adjusted for species differences in plasma protein binding",approximately 110 ng/mL
same,inhibition of p-Chk1,"[10]; tumor-bearing mice, in combination with various chemotherapies",dose-dependent inhibition of p-Chk1
